From US20220096515A1, “Methods and Formulations for Preventing Neurological or Psychiatric Disorders” (Huntington Medical Research Institutes, priority 2020, published 2022)

Legend:
Type in all cases: in vivo, mouse
wildtype CD1 mice = assay: Increasing dose regimen of NAD+ in wildtype CD1 mice, H&E of MGE; conditions: i.p.
Experimental: Histology, immunohistochemistry, and microscopic analysis: Paraffin immunohistochemistry (IHC) was performed on embryonic brains only while frozen section IHC was used on both embryonic and adult brains. Briefly, for paraffin IHC-E18 brains were fixed in zinc fixative (BD Biosciences PharMingen) for 24 h and processed for paraffin histology. Histological stainings with hematoxylin (Vector Laboratories) and eosin (Sigma) were performed on 8 μm coronal sections. Lectin histochemistry (with biotinylated isolectin B4, 1:50, Sigma) as well as IHC was performed on 20 μm sections. Primary antibodies used for IHC were as follows: anti-PHH3 (1:200, Millipore) and anti-NKX2.1, (1:50; Sigma) followed by secondary detection with AlexaFluor conjugates (Invitrogen). DAPI (Vector Laboratories) was used to label nuclei. For frozen section IHC, E18 and P90 brains were removed, fixed in 4% PFA for 24 hours, cryo-protected in sucrose gradient, embedded into OCT medium for frozen blocks; sectioned at 40 μm on a cryostat and immunostained with anti-GABA (1:80, Sigma) and anti -PROX1 (1:80, Millipore) antibodies. Twenty sections from each brain were used for IHC and histology experiments. Uniform penetration of antibodies or stains throughout the section was ascertained and quality of the staining in each digital section was examined. […]

[1] = test system: Gabrb3^ECKO cerebral cortex; assay: Adult (P90) cortex vessel densities and GABA cell counts after prenatal treatment
Experimental: Histology, immunohistochemistry, and microscopic analysis: Paraffin immunohistochemistry (IHC) was performed on embryonic brains only while frozen section IHC was used on both embryonic and adult brains. Briefly, for paraffin IHC-E18 brains were fixed in zinc fixative (BD Biosciences PharMingen) for 24 h and processed for paraffin histology. Histological stainings with hematoxylin (Vector Laboratories) and eosin (Sigma) were performed on 8 μm coronal sections. Lectin histochemistry (with biotinylated isolectin B4, 1:50, Sigma) as well as IHC was performed on 20 μm sections. […]
Morphometry: A stereological point grid was superimposed on digital images of biotinylated isolectin-B4+ vessels using ImageJ software. The ratio between points falling on blood vessels and on brain tissue was calculated for each section, and average values were obtained.
Cell counting: Profiles of GABA+ immunoreactive cells were counted in the prefrontal cortex (at bregma levels 1.5, 0.5 and −1.5) using stereotaxic coordinates from the atlas: The Mouse Brain in Stereotaxic Coordinates, by Paxinos and Franklin. For each area, cells in the strip of cortex from the pial surface to the white-gray matter interface were counted using ImageJ software and plotted. […]

Gabrb3^ECKO mice [2] = assay: Self-grooming; conditions: after prenatal treatment
Experimental: (§1) Behavioral Experiments: Mice were housed in our animal facility with a 12-hour light cycle with ad libitum access to food and water. Offspring stayed with their mothers until weaning at PND 21 after which males and females were separated. Before all behavioral testing, mice were acclimated to the testing room for 1 hour. Behavioral assays were performed according to established protocols referenced here: self-grooming, light-dark box, tail suspension test, Y-maze, open field locomotion activity, three chamber social interaction test and nest building with nestlets and with shredded paper. Both males and females were used for all behavioral assays. Experimenters scoring behaviors were blinded to the genotypes and treatment. Sample sizes for each assay are noted in figure legends.
Therefore, behavioral tests were performed to screen for stress, anxiety, locomotion, cognition, and sociability in saline-treated Gabrb3^fl/fl mice, saline-treated Gabrb3^ECKO mice and NAD^+-treated Gabrb3^ECKO mice. Mice from saline and NAD^+-treated groups were housed individually in cages containing wood chip bedding and two nestlets (pressed cotton) (FIGS. 16A-16D) or more naturalistic material like shredded paper strips (FIGS. 16E-16H). […] This rescue of home cage social behavior was a robust indication of well-being in NAD^+-treated Gabrb3^ECKO mice. […]

Gabrb3^ECKO mice [3] = assay: Open field locomotor activity; conditions: 60 minutes; between the three groups
Experimental: as §1
(§2) Anxiety was next assessed with the classic light-dark transition test which triggers a struggle between the desires to explore a novel environment versus natural aversion of a brightly illuminated open space. […] The Y maze spontaneous alternation test was used to evaluate for spatial learning and memory in the three groups of mice. After introduction to the center of the maze, the mice were given free access to all three arms. […] The total number of arm entries and the sequence of entries are recorded in order to calculate the percentage of alternation. […]

Gabrb3^ECKO mice [4] = assay: Tail suspension test; conditions: vs saline-treated Gabrb3^ECKO mice
Experimental: as §1, §2

SMILES: NC(=O)c1ccc[n+]([C@@H]2O[C@H](COP(=O)([O-])OP(=O)(O)OC[C@H]3O[C@@H](n4cnc5c(N)ncnc54)[C@H](O)[C@@H]3O)[C@@H](O)[C@H]2O)c1 [NAD^+]
- cell cluster in MGE (H&E) (wildtype CD1 mice; 10 mg, 20 mg and 40 mg per mouse): a similar cell cluster in the MGE
- lowest effective dose (wildtype CD1 mice): 10 mg per mouse
- GABAergic interneurons in adult cerebral cortex [1]: concurrent increase
- blood vessel densities in adult cerebral cortex [1]: concurrent increase
- severe grooming behavior (Gabrb3^ECKO mice [2]): ameliorated
- open field locomotor activity (Gabrb3^ECKO mice [3]): no significant differences
- immobility times (Gabrb3^ECKO mice [4]): significantly lower immobility times
